Measurements taken from ChEMBL document CHEMBL3872210, “Synthesis and antiproliferative mechanism of action of pyrrolo[3',2':6,7] cyclohepta[1,2-d]pyrimidin-2-amines as singlet oxygen photosensitizers” (Eur J Med Chem, 2016).
Active and inactive are the calls of the source. The rule behind the calls is not given here.

Experiments:
[1] = Dark toxicity against human HT-29 cells assessed as reduction in cell survival measured after 30 mins by MTT assay; type: cell-based
[2] = Photocytotoxicity against human HeLa cells assessed as reduction in cell survival irradiated with 1.5 J/cm2 UV-light for 5 mins measured after 48 hrs by MTT assay; type: functional, cell-based; conditions: light or radiation study
[3] = Selectivity index, ratio CC50 for cytotoxicity against human MCF7 cells to EC50 for photocytotoxicity against human MCF7 cells; type: toxicity, cell-based; conditions: read-out: Ratio CC50/EC50
[4] = Dark toxicity against human MCF7 cells assessed as reduction in cell survival measured after 30 mins by MTT assay; type: cell-based
[5] = Dark toxicity against human HeLa cells assessed as reduction in cell survival measured after 30 mins by MTT assay; type: cell-based
[6] = Selectivity index, ratio CC50 for cytotoxicity against human HT-29 cells to EC50 for photocytotoxicity against human HT-29 cells; type: toxicity, cell-based; conditions: read-out: Ratio CC50/EC50
[7] = Photocytotoxicity against human HT-29 cells assessed as reduction in cell survival irradiated with 1.5 J/cm2 UV-light for 5 mins measured after 48 hrs by MTT assay; type: functional, cell-based; conditions: HT-29, light or radiation study
[8] = Selectivity index, ratio of CC50 for cytotoxicity against human HeLa cells to EC50 for photocytotoxicity against human HeLa cells; type: toxicity, cell-based; conditions: read-out: Ratio CC50/EC50
[9] = Photocytotoxicity against human MCF7 cells assessed as reduction in cell survival irradiated with 1.5 J/cm2 UV-light for 5 mins measured after 48 hrs by MTT assay; type: functional, cell-based; conditions: MCF7, light or radiation study
[10] = Induction of singlet oxygen sensitization in aqueous acetonitrile solution irradiated with laser flash photolysis assessed as signal intensity absorbance at 610 nanometer by spectroscopic method; type: physicochemical; conditions: buffer
[11] = Induction of lysosomal dysfunction in human MCF7 cells at 2 uM measured after 20 mins under dark condition by Lysotracker green DND staining based confocal microscopic method; type: cell-based; conditions: mcf7, 20 min
MCF7 [12] = experiment: Dark toxicity against human MCF7 cells assessed as increase in production of radical oxygen species at 4 uM after 2 hrs by H2DCFDA dye based fluorescence assay; type: cell-based; conditions: mcf7, 2 h
[13] = Induction of singlet oxygen photogeneration in aqueous acetonitrile solution of ADPA assessed as photobleaching of anthracene absorption upon irradiation at 2.3 10^-5M at 315 nanometer after 1 hr by UV absorption method; type: physicochemical; conditions: buffer
[14] = Induction of singlet oxygen sensitization in aqueous acetonitrile solution irradiated with laser flash photolysis assessed as signal intensity absorbance at 355 nanometer by spectroscopic method; type: physicochemical; conditions: buffer
[15] = Induction of mitochondrial dysfunction in human MCF7 cells at 2 uM measured after 20 mins under dark condition by Mitotracker orange CMTM-ROS/Nuclear green staining based confocal microscopic method; type: cell-based; conditions: mcf7, 20 min
[16] = Induction of apoptosis in human MCF7 cells assessed as early apoptotic cells at photocytotoxic EC50 irradiated with 1.5 J/cm2 UV-light measured after 6 hrs by 7-AAD/PE annexin V staining based FACS analysis (reference value: 17 %); type: functional
MCF7 [17] = experiment: Dark toxicity against human MCF7 cells assessed as increase in production of radical oxygen species at 1 to 4 uM after 2 hrs by H2DCFDA dye based fluorescence assay; type: cell-based; conditions: mcf7, 2 h
[18] = Photocytotoxicity against human MCF7 cells assessed as increase in production of radical oxygen species at 4 uM pretreated for 30 mins followed by 1.5 J/cm2 UV-light irradiation for 5 mins measured after 2 hrs by H2DCFDA dye based fluorescence assay relative to control; type: functional
[19] = Induction of apoptosis in human MCF7 cells assessed as necrotic cells at photocytotoxic EC50 irradiated with 1.5 J/cm2 UV-light measured after 6 hrs by 7-AAD/PE annexin V staining based FACS analysis; type: functional
[20] = Induction of apoptosis in human MCF7 cells assessed as late apoptotic cells at photocytotoxic EC50 irradiated with 1.5 J/cm2 UV-light measured after 6 hrs by 7-AAD/PE annexin V staining based FACS analysis; type: functional
MCF7 [21] = experiment: Induction of mitochondrial dysfunction in human MCF7 cells assessed as accumulation of mitochondrial signal at perinuclear level at 2 uM irradiated with 1.5 J/cm2 UV-light measured after 20 to 120 mins by Mitotracker orange CMTM-ROS/Nuclear green staining based confocal microscopic method; type: functional, cell-based
[22] = Induction of singlet oxygen sensitization in aqueous acetonitrile solution irradiated with laser flash photolysis assessed as signal intensity absorbance at 630 nanometer by spectroscopic method; type: physicochemical; conditions: buffer
MCF7 [23] = experiment: Induction of lysosomal dysfunction in human MCF7 cells at 2 uM irradiated with 1.5 J/cm2 UV-light measured after 2 hrs by Lysotracker green DND staining based confocal microscopic method; type: functional, cell-based
MCF7 [24] = experiment: Induction of lysosomal membrane impairment in human MCF7 cells assessed as increase in dye accumulation in cytoplasm at 2 uM irradiated with 1.5 J/cm2 UV-light measured after 20 mins by Lysotracker green DND staining based confocal microscopic method; type: functional, cell-based
MCF7 [25] = experiment: Induction of lysosomal dysfunction in human MCF7 cells at 2 uM irradiated with 1.5 J/cm2 UV-light measured after 20 mins by Lysotracker green DND staining based confocal microscopic method; type: functional, cell-based
MCF7 [26] = experiment: Induction of mitochondrial dysfunction in human MCF7 cells assessed as clustering and swelling in location at 2 uM irradiated with 1.5 J/cm2 UV-light measured after 20 to 120 mins by Mitotracker orange CMTM-ROS/Nuclear green staining based confocal microscopic method; type: functional, cell-based

Row | Compound | CC50 at 0.5 h [1] | EC50 [2] | selectivity ratio [3] | CC50 at 0.5 h [4] | CC50 at 0.5 h [5] | selectivity ratio [6] | EC50 [7] | selectivity ratio [8] | EC50 [9] | also measured
1 | Cn1c(C(N)=O)cc2c1-c1nc(Nc3ccccc3)ncc1CCC2 | > 100000 nM | 1120 nM | > 20 | > 100000 nM | > 100000 nM | > 54 | 1850 nM | > 90 | 4960 nM | 
2 | COc1ccc(Cn2c(C(N)=O)cc3c2-c2nc(N)ncc2CCC3)cc1 | > 100000 nM | 1140 nM | > 31 | > 100000 nM | > 100000 nM | > 50 | 2000 nM | > 88 | 3260 nM | 
3 | CCOC(=O)c1cc2c(n1Cc1ccc(OC)cc1)-c1nc(N)ncc1CCC2 | > 100000 nM | 320 nM | > 150 | > 100000 nM | > 100000 nM | > 348 | 290 nM | > 312 | 670 nM | 
4 | COc1ccc(Cn2c(C(N)=O)cc3c2-c2nc(NC4CCCCC4)ncc2CCC3)cc1 | > 100000 nM | 120 nM | > 549 | > 100000 nM | > 100000 nM | > 243 | 410 nM | > 813 | 180 nM | 
5 | NC(=O)c1cc2c(n1Cc1ccccc1)-c1nc(Nc3ccccc3)ncc1CCC2 | > 100000 nM | 250 nM | 64 | 66500 nM | > 100000 nM | > 281 | 360 nM | > 397 | 1040 nM | 
6 | CCOC(=O)c1cc2c(n1Cc1ccc(OC)cc1)-c1nc(Nc3ccccc3)ncc1CCC2 | > 100000 nM | 180 nM | > 117 | > 100000 nM | > 100000 nM | > 1470 | 70 nM | > 559 | 860 nM | 
7 | Cn1c(C(N)=O)cc2c1-c1nc(NC3CCCCC3)ncc1CCC2 | > 100000 nM | 820 nM | 41 | 75200 nM | > 100000 nM | > 67 | 1500 nM | > 121 | 1850 nM | 
8 | NC(=O)c1cc2c(n1Cc1ccccc1)-c1nc(N)ncc1CCC2 | > 100000 nM | 2090 nM | > 27 | > 100000 nM | > 100000 nM | > 46 | 2170 nM | > 48 | 3690 nM | 
9 | CCOC(=O)c1cc2c(n1C)-c1nc(Nc3ccccc3)ncc1CCC2 | > 100000 nM | 100 nM | > 709 | > 100000 nM | > 100000 nM | > 348 | 290 nM | > 1040 | 140 nM | 
10 | NC(=O)c1cc2c(n1Cc1ccccc1)-c1nc(NC3CCCCC3)ncc1CCC2 | > 100000 nM | 220 nM | > 569 | > 100000 nM | > 100000 nM | > 270 | 370 nM | > 463 | 180 nM | 
11 | CCOC(=O)c1cc2c(n1Cc1ccccc1)-c1nc(N)ncc1CCC2 | 79200 nM | 220 nM | 93 | 73600 nM | > 100000 nM | 284 | 280 nM | > 455 | 790 nM | 
12 | CCOC(=O)c1cc2c(n1Cc1ccccc1)-c1nc(Nc3ccccc3)ncc1CCC2 | > 100000 nM | 280 nM | > 412 | > 100000 nM | > 100000 nM | > 143 | 700 nM | > 355 | 240 nM | 
13 | Cn1c(C(N)=O)cc2c1-c1nc(N)ncc1CCC2 | > 100000 nM | 8750 nM | > 1.5 | > 100000 nM | > 100000 nM |  | > 100000 nM | > 11 | 66000 nM | Activity [10]: 0.0146; Activity [11]: Non-Toxic; Activity (MCF7 [12]): Non-Toxic; Activity [13]: Active; Activity [14]: 0.012; Activity [15]: Non-Toxic; Activity [16]: 22%
14 | COc1ccc(Cn2c(C(N)=O)cc3c2-c2nc(Nc4ccccc4)ncc2CCC3)cc1 | > 100000 nM | 160 nM | > 358 | > 100000 nM | > 100000 nM | > 360 | 280 nM | > 610 | 280 nM | 
15 | CCOC(=O)c1cc2c(n1C)-c1nc(N)ncc1CCC2 | > 100000 nM | 720 nM | > 65 | > 100000 nM | > 100000 nM | > 58 | 1720 nM | > 139 | 1540 nM | 
16 | CCOC(=O)c1cc2c(n1Cc1ccc(OC)cc1)-c1nc(NC3CCCCC3)ncc1CCC2 | > 100000 nM | 70 nM | > 952 | > 100000 nM | > 100000 nM | > 735 | 140 nM | > 1360 | 110 nM | 
17 | CCOC(=O)c1cc2c(n1Cc1ccccc1)-c1nc(NC3CCCCC3)ncc1CCC2 | > 100000 nM | 60 nM | > 1050 | > 100000 nM | > 100000 nM | > 1240 | 80 nM | > 1670 | 100 nM | Activity (MCF7 [17]): Non-Toxic; Activity [18]: 198%
18 | CCOC(=O)c1cc2c(n1C)-c1nc(NC3CCCCC3)ncc1CCC2 | > 100000 nM | 80 nM | > 1250 | > 100000 nM | > 100000 nM | > 1110 | 90 nM | > 1270 | 80 nM | Activity (MCF7 [17]): Non-Toxic; Activity [19]: 11%; Activity [20]: 13%; Activity [11]: Non-Toxic; Activity (MCF7 [21]): Active; Activity [18]: 222%; Activity [22]: 0.052; Activity [13]: Active; Activity [14]: 0.012; Activity (MCF7 [23]): Active; Activity (MCF7 [24]): Active; Activity (MCF7 [25]): Active; Activity [15]: Non-Toxic; Activity [16]: 47%; Activity (MCF7 [26]): Active
